Like-named read-outs stand apart in the source and are kept apart here.
Biological target: T1, PARP-1 (Homo sapiens, UniProt P09874)
T1 construct: purchased Trevigen (Gaithersburg, Md.); host or cells: E. coli
Assay: PARP1 assay (inhibition of PARP, [3H]-NAD+ / biotinylated histone H1, FlashPlate scintillation)
Format: biochemical

[1] = recombinant human PARP, 1 nM enzyme, 1.5 μM [3H]-NAD+, inhibition curves at various substrate concentrations, read-out: PARP-1 (Ki)

T1 sequence (P09874 whole entry): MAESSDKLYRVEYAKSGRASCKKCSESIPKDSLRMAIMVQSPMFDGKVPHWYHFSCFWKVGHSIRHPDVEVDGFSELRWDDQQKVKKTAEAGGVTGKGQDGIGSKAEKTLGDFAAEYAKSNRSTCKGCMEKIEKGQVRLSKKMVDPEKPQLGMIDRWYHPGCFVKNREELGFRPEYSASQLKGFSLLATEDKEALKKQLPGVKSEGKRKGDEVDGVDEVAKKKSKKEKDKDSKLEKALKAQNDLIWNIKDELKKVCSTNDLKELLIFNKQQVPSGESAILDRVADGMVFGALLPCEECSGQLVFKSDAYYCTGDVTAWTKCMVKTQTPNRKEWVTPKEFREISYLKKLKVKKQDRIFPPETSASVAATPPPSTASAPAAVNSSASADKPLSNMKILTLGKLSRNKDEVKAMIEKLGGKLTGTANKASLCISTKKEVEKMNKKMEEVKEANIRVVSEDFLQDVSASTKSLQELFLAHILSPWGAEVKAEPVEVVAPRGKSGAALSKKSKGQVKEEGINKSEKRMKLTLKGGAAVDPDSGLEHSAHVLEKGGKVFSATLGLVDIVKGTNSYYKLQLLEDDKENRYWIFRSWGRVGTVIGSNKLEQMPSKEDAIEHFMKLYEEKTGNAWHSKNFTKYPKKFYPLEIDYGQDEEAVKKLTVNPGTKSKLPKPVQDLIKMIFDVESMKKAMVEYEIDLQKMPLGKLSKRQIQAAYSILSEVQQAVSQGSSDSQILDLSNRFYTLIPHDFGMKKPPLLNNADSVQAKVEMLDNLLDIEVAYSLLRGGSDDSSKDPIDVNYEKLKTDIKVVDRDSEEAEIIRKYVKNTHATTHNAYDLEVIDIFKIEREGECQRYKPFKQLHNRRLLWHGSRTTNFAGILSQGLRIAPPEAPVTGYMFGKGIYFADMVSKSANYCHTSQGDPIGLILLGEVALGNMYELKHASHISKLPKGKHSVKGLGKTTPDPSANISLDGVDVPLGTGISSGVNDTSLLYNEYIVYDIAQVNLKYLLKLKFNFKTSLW
Procedure: Nicotinamide[2,5′,8-3H]adenine dinucleotide and strepavidin SPA beads were purchased from Amersham Biosiences (Buckinghamshire, U.K.). […] NAD^+, histone, aminobenzamide, 3-amino benzamide and Calf Thymus DNA (dcDNA) were purchased from Sigma (St. Louis, Mo.). […] Biotinylated histone H1 was prepared by treating the protein with Sulfo-NHS-LC-Biotin from Pierce (Rockford, Ill.). The biotinylation reaction was conducted by slowly and intermittently adding 3 equivalents of 10 mM Sulfo-NHS-LC-Biotin to 100 μM Histone H1 in phosphate-buffered saline, pH 7.5, at 4° C. with gentle vortexing over 1 minute followed by subsequent 4° C. incubation for 1 hour. Streptavidin coated (FLASHPLATE PLUS®) microplates were purchased from Perkin Elmer (Waltham, Mass.).
PARP1 assay was conducted in PARP assay buffer containing 50 mM Tris pH 8.0, 1 mM DTT, 4 mM MgCl2. […] Auto reactions utilizing SPA bead-based detection were carried out in 100 μL volumes in white 96 well plates. Reactions were initiated by adding 50 μl of 2× NAD^+ substrate mixture to 50 μL of 2× enzyme mixture containing PARP and DNA. […] 170 μL of the stopped reaction mixtures were transferred to streptavidin FLASHPLATE PLUS®, incubated for 1 hour, and counted using a TOPCOUNT® microplate scintillation counter from Perkin Elmer (Waltham, Mass.).

Row | Compound | Ki [1] | Ki
1 | 8-(((2-ethoxyethyl)(methyl)amino)methyl)-5,6-dihydro-4H-pyrrolo[1,2-a][1,4]benzodiazepin-4-one [Example 30] | 2650 nM | –
2 | O=c1[nH]c2cc(CN3CCCCC3)ccc2n2ccnc12 [Example 22, 7-(piperidin-1-ylmethyl)imidazo[1,2-a]quinoxalin-4(5H)-one] | 330 nM | –
3 | O=C(O)CNCc1ccc2c(c1)[nH]c(=O)c1cccn12 [Example 60, N-[(4-oxo-4,5-dihydropyrrolo[1,2-a]quinoxalin-7-yl)methyl]glycine] | 318 nM | –
4 | O=C1CCCN1Cc1ccc2c(c1)[nH]c(=O)c1cccn12 [Example 52, 7-[(2-oxopyrrolidin-1-yl)methyl]pyrrolo[1,2-a]quinoxalin-4(5H)-one] | 698 nM | –
5 | CN1CCN(Cc2ccc3c(c2)CNC(=O)c2cccn2-3)CC1 [Example 29, 8-((4-methylpiperazin-1-yl)methyl)-5,6-dihydro-4H-pyrrolo[1,2-a][1,4]benzodiazepin-4-one] | 1500 nM | –
6 | O=c1[nH]c2cc(CNCC3CCCCC3)ccc2n2cccc12 [Example 2, 7-(((cyclohexylmethyl)amino)methyl)pyrrolo[1,2-a]quinoxalin-4(5H)-one] | 91 nM | –
7 | O=C1NCc2cc(CNCc3ccccc3)ccc2-n2cccc21 [Example 32, 8-((benzylamino)methyl)-5,6-dihydro-4H-pyrrolo[1,2-a][1,4]benzodiazepin-4-one] | 809 nM | –
8 | O=c1[nH]c2ccc(CNC3CCCCC3)cc2n2cccc12 [Example 8, 8-((cyclohexylamino)methyl)pyrrolo[1,2-a]quinoxalin-4(5H)-one] | 99 nM | –
9 | O=C(NCC(=O)N1CCOCC1)c1ccc2c(c1)[nH]c(=O)c1cccn12 [Example 64, N-(2-morpholino-2-oxoethyl)-4-oxo-4,5-dihydropyrrolo[1,2-a]quinoxaline-7-carboxamide] | 369 nM | –
10 | O=c1[nH]c2cc(CNCc3ccccc3)ccc2n2cccc12 [Example 11, 7-((benzylamino)methyl)pyrrolo[1,2-a]quinoxalin-4(5H)-one] | – | 127 nM
11 | CS(=O)(=O)N(Cc1ccc2c(c1)[nH]c(=O)c1cccn12)C1CC1 [Example 56, N-cyclopropyl-N-[(4-oxo-4,5-dihydropyrrolo[1,2-a]quinoxalin-7-yl)methyl]methanesulfonamide] | 909 nM | –
12 | O=C1NCc2cc(CNCC3CCCCC3)ccc2-n2cccc21 [Example 31, 8-(((cyclohexylmethyl)amino)methyl)-5,6-dihydro-4H-pyrrolo[1,2-a][1,4]benzodiazepin-4-one] | 1490 nM | –
13 | O=c1[nH]c2cc(CNCC3CCCCC3)ccc2n2ccnc12 [Example 24, 7-(((cyclohexylmethyl)amino)methyl)imidazo[1,2-a]quinoxalin-4(5H)-one] | 5180 nM | –
14 | CC(C)NCc1ccc2c(c1)CNC(=O)c1cccn1-2 [Example 28, 8-((isopropylamino)methyl)-5,6-dihydro-4H-pyrrolo[1,2-a][1,4]benzodiazepin-4-one] | 1470 nM | –
15 | O=c1[nH]c2cc(CN3CCOCC3)ccc2n2ccnc12 [Example 25, 7-(morpholin4-ylmethyl)imidazo[1,2-a]quinoxalin-4(5H)-one] | 2850 nM | –
16 | CN(C)Cc1ccc2c(c1)[nH]c(=O)c1nccn12 [Example 23, 7-((dimethylamino)methyl)imidazo[1,2-a]quinoxalin-4(5H)-one] | 519 nM | –
17 | CC(C)N(C)Cc1ccc2c(c1)NC(=O)C1CCCN21 (stereo not shown) [Example 50, 7-{[isopropyl(methyl)amino]methyl}-1,2,3,3a-tetrahydropyrrolo[1,2-a]quinoxalin-4(5H)-one] | 1960 nM | –
18 | O=c1[nH]c2ccc(CNCCc3ccccc3)cc2n2cccc12 [Example 14, 8-(((2-phenylethyl)amino)methyl)pyrrolo[1,2-a]quinoxalin-4(5H)-one] | 98 nM | –
19 | O=C(NCCCN1CCOCC1)c1ccc2c(c1)[nH]c(=O)c1cccn12 [Example 63, N-(3-morpholin-4-ylpropyl)-4-oxo-4,5-dihydropyrrolo[1,2-a]quinoxaline-7-carboxamide] | 211 nM | –
20 | CN1CCN(Cc2ccc3c(c2)NC(=O)C2CCCN32)CC1 (stereo not shown) [Example 48, 7-[(4-methylpiperazin-1-yl)methyl]-1,2,3,3a-tetrahydropyrrolo[1,2-a]quinoxalin-4(5H)-one] | > 9500 nM | –
21 | CN1CCN(Cc2ccc3c(c2)NC(=O)C2CCCCN32)CC1 (stereo not shown) [Example 42, 3-[(4-methylpiperazin-1-yl)methyl]-7,8,9,10-tetrahydro-5H-pyrido[1,2-a]quinoxalin-6(6aH)-one] | 7790 nM | –
22 | O=C1NCc2cc(CN3CCCC3)ccc2-n2cccc21 [Example 27, 8-(pyrrolidin-1-ylmethyl)-5,6-dihydro-4H-pyrrolo[1,2-a][1,4]benzodiazepin-4-one] | 1120 nM | –

Second part, the compound after the results:

Row | Ki [1] | Ki | Compound
23 | 1630 nM | – | CN(C)CCNC(=O)c1ccc2c(c1)[nH]c(=O)c1cccn12 [Example 68, N-[2-(dimethylamino)ethyl]-4-oxo-4,5-dihydropyrrolo[1,2-a]quinoxaline-7-carboxamide]
24 | 8690 nM | – | O=C(c1ccc2c(c1)[nH]c(=O)c1cccn12)N1CCCNCC1 [Example 88, 7-(1,4-diazepan-1-ylcarbonyl)pyrrolo[1,2-a]quinoxalin-4(5H)-one]
25 | 615 nM | – | CN(C)C(=O)c1ccc2c(c1)[nH]c(=O)c1cccn12 [Example 79, N,N-dimethyl-4-oxo-4,5-dihydropyrrolo[1,2-a]quinoxaline-7-carboxamide]
26 | 776 nM | – | CN(C)C1CCC(NC(=O)c2ccc3c(c2)[nH]c(=O)c2cccn23)CC1 (stereo not shown) [Example 74, N-[4-(dimethylamino)cyclohexyl]-4-oxo4,5-dihydropyrrolo[1,2-a]quinoxaline-7-carboxamide]
27 | 77 nM | – | NC1CCN(C(=O)c2ccc3c(c2)[nH]c(=O)c2cccn23)CC1 [Example 87, 7-[(4-aminopiperidin-1-yl)carbonyl]pyrrolo[1,2-a]quinoxalin-4(5H)-one]
28 | 427 nM | – | CN(C)CCNCc1ccc2c(c1)[nH]c(=O)c1cccn12 [Example 65, 7-({[2-(dimethylamino)ethyl]amino}methyl)pyrrolo[1,2-a]quinoxalin-4(5H)-one]
29 | 182 nM | – | O=c1[nH]c2cc(CNCCN3CCCCC3)ccc2n2cccc12 [Example 71, 7-{[(2-piperidin-1-ylethyl)amino]methyl}pyrrolo[1,2-a]quinoxalin-4(5H)-one]
30 | 163 nM | – | CN(C)C1CCC(NCc2ccc3c(c2)[nH]c(=O)c2cccn23)CC1 (stereo not shown) [Example 72, 7-({[4-(dimethylamino)cyclohexyl]amino}methyl)pyrrolo[1,2-a]quinoxalin-4(5H)-one]
31 | 113 nM | – | CCN1CCCC(NC(=O)c2ccc3c(c2)[nH]c(=O)c2cccn23)C1 (stereo not shown) [Example 80, N-(1-ethylpiperidin-3-yl)4-oxo-4,5-dihydropyrrolo[1,2-a]quinoxaline-7carboxamide]
32 | 98 nM | – | O=C(Nc1nccs1)c1ccc2c(c1)[nH]c(=O)c1cccn12 [Example 84, 4-oxo-N-1,3-thiazol-2-yl-4,5-dihydropyrrolo[1,2-a]quinoxaline-7-carboxamide]
33 | 149 nM | – | O=C(CNCc1ccc2c(c1)[nH]c(=O)c1cccn12)N1CCCC1 [Example 76, 7-((2-oxo-2-(pyrrolidin-1-yl)ethylamino)methyl)pyrrolo[1,2-a]quinoxalin-4(5H)-one]
34 | 94 nM | – | O=C(NCCCCc1ccccc1)c1ccc2c(c1)[nH]c(=O)c1cccn12 [Example 81, 4-oxo-N-(4-phenylbutyl)-4,5-dihydropyrrolo[1,2-a]quinoxaline-7-carboxamide]

Reference: patent US7790721B2, “Pyrroloquinoxalinone inhibitors of poly(ADP-ribose)polymerase” (Abbott Laboratories, priority 2006, dated 2010)
